Entries after “also recorded” stand apart in the source; their conditions may differ.
Assays:
[1] = system: psychomotor seizures induced by 6-Hz electrical stimulation in wild-type CD-1 mice; experiment: 6-Hz psychomotor seizure model; assay type: in vivo, mouse; set-up: EC50 value, protection from psychomotor seizures: unit not given here
Excerpt: This study evaluated the efficacy of Compound 1 in attenuating psychomotor seizures induced by 6-Hz electrical stimulation at two different stimulation intensities (32 and 44 mA) in wild-type CD-1 mice. Psychomotor seizures are defined as the expression of at least one of the following behaviors: stun/immobility, forelimb clonus, straub tail or lateral head movement within 30 seconds of the stimulus. Protection is defined as a complete absence of the above behaviors within 30 seconds of the stimulus. Doses of Compound 1 used were 1 mg/kg, 3 mg/kg and 6 mg/kg administered orally. Valproate (600 mg/kg, administered intraperitoneally) was used as a positive control.
Male CD-1 mice (Charles River Laboratories; St. Constant, Quebec, CAN) were used for the study. Body weights at the time the experiment was carried out were 30-40 grams. The mice were group-housed in polycarbonate cages according to standard operating procedures. Animals were maintained on a 12-hour light/12 hour dark cycle, with all experimental activities occurring during the light phase. Food and water were available ad libitum. Mice acclimated to the test facility for at least 72 hours prior to testing.
Treatment was conducted using Compound 1 and 35% 2-hydroxypropyl-β-cyclodextrin (35% HPBCD, used as a negative control). Compound 1 stock solution was prepared fresh each experiment day in 35% HPBCD. […] Valproate was prepared fresh each experiment day in a vehicle of saline and dosed at 10 mL/kg.
Mice were administered vehicle (35% HPBCD), a single dose of Compound 1 (1 mg/kg, 3 mg/kg or 6 mg/kg) or valproate (600 mg/kg). Vehicle and Compound 1 were administered via oral gavage 30 minutes prior to […]. Valproate was administered as an intraperitoneal injection 60 minutes prior to the electrical stimulus.
Immediately prior to conducting the 6-Hz seizure test, a brief neurological assessment was performed. Each animal was visually assessed and received a score from 0 to 3 according to the following scoring system::neurological score of 0 corresponds to a normal status; neurological score of 1 corresponds to a modest decrease in spontaneous activity; neurological score of 2 corresponds to a marked decrease in spontaneous activity; and neurological score of 3 corresponds to loss of righting reflex.
Corneal electrodes moistened with saline (ECT unit 57800; Ugo Basile) were used to deliver the electrical stimulus (6-Hz, 0.2 millisecond pulse width, 3 seconds duration). The current delivered was either 32 mA or 44 mA. Immediately after the electrical stimulus, each mouse was monitored continuously for 30 seconds by an observer blinded to the treatment group. […] Mice were scored for the presence or absence of each seizure behavior, with a maximum total score of 4. […] At the end of the 6-Hz seizure test, plasma and brain samples were collected.
Mice were anesthetized with isoflurane, whole blood was collected via cardiac puncture and brains were harvested. Whole blood was collected in potassium EDTA tubes and centrifuged at ˜3300 g for 5 minutes at 4° C. to isolate plasma. Plasma and brain samples were stored at −80° C. and analyzed to determine levels of Compound 1.
All statistical analyses were conducted using GraphPad Prism 9.3. Seizure scores were compared using Kruskal-Wallis test, followed by Dunn's post hoc and p<0.05 was considered statistically significant.

[2] = in vivo; details: rat
[3] = Phase 1 clinical trial, single ascending dose (Part A), healthy volunteers; assay type: in vivo, human; details: healthy participants, single oral doses up to 45 mg
Excerpt: This is a trial to assess the safety, tolerability, pharmacokinetics (PK), and pharmacodynamics (PD) of Compound 1 in healthy participants aged 18 to 55 years (inclusive). The trial is initially comprised of 2 parts, with 1 additional optional part, as follows: • Part A is randomized, double-blinded, and placebo-controlled. Part A is designed to investigate the safety, PK, and PD of single ascending doses of Compound 1. • Part B is randomized, double-blinded, and placebo-controlled. Part B is designed to investigate the safety, PK, and PD of multiple ascending doses (selected based on the results from Part A) of Compound 1. • Part C (optional) is a randomized, open-label, crossover design food effect evaluation to investigate the PK of a single dose (selected based on the results from Part A) of Compound 1 in the fasted and fed state.
Safety and tolerability assessments for Parts A, B, and C will include vital signs, 12-lead ECGs, physical examinations, clinical laboratory tests, and the C-SSRS (for Part B).
Healthy participants will be enrolled to receive single ascending oral doses of Compound 1 or placebo on Day 1. FIG. 14A is an illustration of the dosing scheme for Part A (single ascending dose) of the trial. Dose escalation in Part A will initially be conducted in up to a total of 4 planned cohorts (Cohorts A1 to A4). Following completion of Cohort A4, up to an additional 3 escalation cohorts may be added. […] Doses may be adjusted upward or downward based on safety, tolerability, and PK data from the preceding cohorts. Cohorts after A4 will be numbered sequentially (A5, A6, etc.). […]
Compound 1 will be administered to Cohort A1 participants at the starting dose of 5 mg. […] The safety and tolerability of each sentinel participant will be monitored until Day 2 and will be reviewed prior to dosing the remainder of participants in the cohort. […]
Cohorts will be dosed in an escalating order. […] If the current dose level is determined to be safe and tolerated by the SRC, the next dose cohort will be randomized to receive the selected dose of active Compound 1 or placebo. […]

CCOC(F)(F)c1nnc2ccc(-c3cnc(OCC(F)(F)F)c(F)c3)cn12 [Compound 1]
seizure score ([1]; 6 mg/kg orally, 32 and 44 mA): significantly reduced the seizure score; also recorded: reduced seizure scores | neurological scores before 6-Hz test ([1]; 1, 3, 6 mg/kg orally): all neurological scores were zero; also recorded: Neurological scores for all doses of Compound 1 tested were normal | Plasma EC50 ([1]; 32 mA, 95% confidence interval in parentheses): 385 (383-386) ng/mL | Plasma EC50 ([1]; 44 mA): >441 ng/mL | ED50 ([1]; Mus musculus, dose-response curve, read-out: ED50 value, protection from psychomotor seizures): 1.9 mg/kg | EC50 value, protection from psychomotor seizures ([1]; plasma concentration-response curve): 147 | AUC(0-inf) [2]: 7500 ng·h/mL | most frequently reported TEAEs [3]: headache and fatigue | safety and tolerability [3]: safe and generally well tolerated | severity of treatment-emergent adverse events (TEAEs) [3]: mild in severity
